Source: patent US6245791A (Aventis Pharma S.A., priority 1998, dated 2001)

Tested on: glutamate uptake in synaptosomes of rat cerebellum
Method: The increase in glutamate uptake is evaluated in a suspension of synaptosomes prepared from rat cerebellar cells.
The synaptosomes were prepared according to a modification of the method described by Robinson, M. B., et al., (Brain Res., 544: 196-202, 1991). The tissues of cerebellum or of other regions of the brain of male rats of the Sprague-Dawley breed are homogenized in a sucrose solution (0.32 M) at 4° C. and then centrifuged at 800 g for 10 minutes. The supernatant is then recentrifuged at 20,000 g for 20 minutes. The centrifugation pellet obtained is resuspended in an identical sucrose solution and then centrifuged again at 20,000 g for 20 minutes. The synaptosomes are contained in this second centrifugation pellet. They are suspended and used immediately for measuring glutamate uptake. This is monitored with the aid of tritium-labelled glutamate ([^3 H]glutamate) diluted in a solution of nonradioactive glutamate. After 3 minutes of incubation at 37° C., the synaptosomes are separated from the incubation medium by filtration. […] This radioactivity is proportional to the glutamate uptake. The results are expressed as specific uptake, that is to say the uptake which depends on the presence of sodium ions in the incubation medium. It can be distinguished from the nonspecific uptake which corresponds to the radioactivity measured after equimolar replacement of sodium chloride in the incubation medium with choline chloride. The specific uptake corresponds to the total radioactivity minus the radioactivity measured in the presence of choline chloride.
The data are the mean values±SEM of n=8 independent observations.

Nc1nc2ccc(OC(F)(F)F)cc2s1 [riluzole, 2-amino-6-trifluoromethoxybenzothiazole]
dependence of the increase in glutamate uptake on the age of the rats (cerebellum, postnatal period to adult age, stable after about 10 weeks): increases with the age of the rats
uptake of radioactive glutamate (result in words) (rat cerebellar synaptosomes, increasing concentrations of riluzole (FIG. 1)): increased in a concentration-dependent manner
maximum increase in glutamate uptake (rat cerebellar synaptosomes, specific uptake, n=8, 3 min): ~40 % of the control values
